Read-outs that look alike come from different tables or passages of the source.
What was measured:
CT-DNA = assay: Interaction with isolated CT-DNA, fluorescence competition with ethidium bromide; type: binding; settings: for IC50: 50% decrease in fluorescence intensity of DNA-bromide ethydine complex; for Kapp relative constant of DNA-compound bonding: Kapp = (1.26/C50) × KEtBr, KEtBr = 10^7M
Excerpt: It could be supposed that this property explains cytostatic activity of compounds. In Table 9 there are presented quantitative data on the affinity to DNA of tested compounds using the fluorescence method and competitive affinity to DNA of bromine ethydine and tested compounds.

[1] = test system: human prostate cancer cell line PC3; assay: Cytostatic activity in vitro, prostate cancer PC3; type: cell-based; settings: 72 h continuous exposure
Excerpt: (§1) Table 5 presents activity in vitro of anthrapiridazone derivatives towards three cell lines of prostate cancer, naturally multidrug resistant, in comparison with references doxorubicin, mitoxantrone and taxol.

[2] = test system: human prostate cancer cell line DU145; assay: Cytostatic activity in vitro, prostate cancer DU145; type: cell-based; settings: 72 h continuous exposure
Excerpt: as §1

[3] = test system: human promyelocytic leukemia cell line HL-60; assay: Cytostatic activity in vitro, HL-60 sensitive line; type: cell-based; settings: read-out: HL60 IC50
Excerpt: (§2) Tables 3 and 4 show cytostatic activity in vitro of 2,6-disubstituted and 2- or 6-monosubstituted (Tab.3), and of 2,5-disubstituted-(Tab.-4) tetracyclic anthrapyridazone derivatives using leukemia cell line HL-60 and the resistant cell sublines with resistance induced by vincristine (MDR-1) or doxorubicin (MRP). Activity of compounds is differentiated depending on their structure, but in all cases resistance indexes are more advantageous in comparison with reference compounds: doxorubicin and mitoxantrone.

HL60/DX = assay: Cytostatic activity in vitro, doxorubicin-induced resistant subline (MRP); type: cell-based, human; settings: for RI resistance index HL60/DX: IC50(resistant cells)/IC50(sensitive cells)
Excerpt: as §2

[4] = test system: human prostate cancer cell line LNCaP; assay: Cytostatic activity in vitro, prostate cancer LNCaP; type: cell-based; settings: 72 h continuous exposure
Excerpt: as §1

HL60/VINC = assay: Cytostatic activity in vitro, vincristine-induced resistant subline (MDR-1); type: cell-based, human; settings: for RI resistance index HL60/VINC / RI resistance index HL60VINC: IC50(resistant cells)/IC50(sensitive cells); for RI resistance index HL60/VINC: HL60/VINC vs HL60, 72 h; for RI resistance index HL60VINC: 96 h
Excerpt: as §2

[5] = 50% inhibition of cell growth after 72 h continuous exposure
[6] = 96 h continuous exposure, read-out: HL60VINC IC50

IC50 (CT-DNA) [nM] | IC50 [1] [nM] | IC50 [2] [nM] | IC50 [3, 5] [nM] | IC50 (HL60/DX; 72 h continuous exposure) [nM] | IC50 [4] [nM] | IC50 (HL60/VINC; 72 h continuous exposure) [nM] | IC50 ([3]; 96 h continuous exposure) [nM] | IC50 (HL60/DX; 96 h continuous exposure) [nM] | IC50 (HL60/VINC; [6]) [nM] | IC50 ([1]; Homo sapiens) [nM] | IC50 ([2]; Homo sapiens, DU-145) [nM] | IC50 ([4]; Homo sapiens, LNCaP) [nM] | SMILES | Kapp relative constant of DNA-compound bonding (CT-DNA) [M⁻¹] | RI resistance index HL60/DX (HL60/DX; HL60/DX vs HL60, 72 h) | RI resistance index HL60/VINC (HL60/VINC) | RI resistance index HL60/DX (HL60/DX; 96 h) | RI resistance index HL60VINC (HL60/VINC)
370 ± 80 | 51.6 ± 12.4 | 14.3 ± 3.3 | 2.1 ± 0.4 | 706 ± 57 | 8.1 ± 1 | 30.8 ± 4 | – | – | – | – | – | – | CN(C)CCn1nc2c3c(c(NCCNCCO)ccc3c1=O)C(=O)c1ccccc1-2 [Compound C-165, 2-[2-(Dimethylamino)ethyl]-6-[2-(2-aminoethylamino)ethanolo]-2,7-dihydro-3H-dibenzo[de,h]cynnoline-3,7-dione] | 3.44e+07 | 336.2 | 14.7 | – | –
3150 ± 150 | 3010 ± 264 | 2090 ± 583 | 758 ± 115 | 2770 ± 494 | 1550 ± 363 | 1160 ± 93 | – | – | – | – | – | – | O=C1c2ccccc2-c2n[nH]c(=O)c3ccc(NCCNCc4ccccc4)c1c23 [PDZ-10, 6-(2-Benzylaminoetyloamino)-2,7-dihydro-3H-dibenzo[de,h]cynnoline-3,7-dione] | 4e+06 | 3.7 | 1.5 | – | –
1760 ± 120 | 709 ± 163 | 725 ± 121 | 269 ± 41 | 919 ± 89 | 549 ± 85 | 509 ± 54 | – | – | – | – | – | – | CN(C)CCCn1nc2c3c(c(N)ccc3c1=O)C(=O)c1ccccc1-2 [PDZ-3, 2-[3-(Dimethylamino)propyl]-6-amino-2,7-dihydro-3H-dibenzo[de,h]cynnoline-3,7-dione] | 7.1e+06 | 3.4 | 1.9 | – | –
2100 ± 100 | 1250 ± 206 | 558 ± 129 | 311 ± 54 | 1180 ± 94 | 427 ± 80 | 574 ± 12 | – | – | – | – | – | – | CCCCNCCNc1ccc2c(=O)[nH]nc3c2c1C(=O)c1ccccc1-3 [PDZ-9, 6-(2-Butylaminoethylamino)-2,7-dihydro-3H-dibenzo[de,h]cynnoline-3,7-dione] | 6e+06 | 3.8 | 1.8 | – | –
1960 ± 120 | 974 ± 159 | 418 ± 58 | 115 ± 3 | 3500 ± 752 | 465 ± 121 | 597 ± 16 | – | – | – | – | – | – | CCN(CC)CCNc1ccc2c(=O)[nH]nc3c2c1C(=O)c1ccccc1-3 [PDZ-18, 6-(2-Diethylaminoethyloamino)-2,7-dihydro-3H-dibenzo[de,h]cynnoline-3,7-dione] | 6.4e+06 | 30.4 | 5.2 | – | –
460 ± 80 | 606 ± 38 | 344 ± 43 | 98 ± 19 | 2870 ± 447 | 166 ± 40 | 477 ± 39 | – | – | – | – | – | – | O=C1c2ccccc2-c2nn(CCN3CCCCC3)c(=O)c3ccc(NCCNCc4ccccc4)c1c23 [PDZ-17, 2-[2-(Piperidinamino)ethyl]-6-(2-benzylaminoethylamino)-2,7-dihydro-3H-dibenzo [de,h]cynnoline-3,7-dione] | 2.72e+07 | 29.3 | 4.9 | – | –
– | – | – | – | – | – | – | 398 ± 25 | 564 ± 34 | 375 ± 18 | – | – | – | CN(C)CCn1nc2c3c(cc(NCCNCc4ccccc4)cc3c1=O)C(=O)c1ccccc1-2 [Compound C-171, 2-[2-(Dimethylamino)ethyl]-5-[(2-benzylamino)ethylamino]-2,7-dihydro-3H-dibenzo[de,h]cynnolino-3,7-dion] | – | – | – | 1.4 | 0.9
310 ± 40 | 127 ± 38.6 | 25.6 ± 2.6 | 8.7 ± 0.5 | 827 ± 145 | 52.9 ± 12.1 | 58 ± 6 | – | – | – | – | – | – | CC(CNc1ccc2c(=O)n(CC(C)N(C)C)nc3c2c1C(=O)c1ccccc1-3)N(C)C (stereo not drawn) [Compound C-123, 2-[2-(Dimethylamino)propyl]-6-{[2-(dimethylamino)propyl]amino}-2,7-dihydro-3H-dibenzo[de,h]cynnoline-3,7-dione] | 4.04e+07 | 95.1 | 6.7 | – | –
1850 ± 160 | 80.5 ± 12 | 28.6 ± 2.8 | 21 ± 1 | 620 ± 62 | 65.4 ± 7.4 | 43 ± 2 | – | – | – | – | – | – | CNc1ccc2c(=O)n(CCN(C)C)nc3c2c1C(=O)c1ccccc1-3 [PDZ-7, 2-[2-(Dimethylamino)ethyl]-6-(N-methylamino)-2,7-dihydro-3H-dibenzo[de,h]cynnoline-3,7-dione] | 6.8e+06 | 29.5 | 2.0 | – | –
1690 ± 100 | 886 ± 170 | 538 ± 45 | 382 ± 56 | 1360 ± 135 | 474 ± 76 | 677 ± 29 | – | – | – | – | – | – | Nc1ccc2c(=O)n(CCN3CCCCC3)nc3c2c1C(=O)c1ccccc1-3 [PDZ-5, 2-[2-(Piperidinamino)ethyl]-6-amino-2,7-dihydro-3H-dibenzo[de,h]-cynnoline-3,7-dione] | 7.5e+06 | 3.6 | 1.8 | – | –
990 ± 10 | 85.5 ± 10.1 | 32.8 ± 1.4 | 28 ± 6 | 870 ± 173 | 44.8 ± 5.6 | 79 ± 7 | – | – | – | – | – | – | CC(=O)Nc1ccc2c(=O)n(CCN(C)C)nc3c2c1C(=O)c1ccccc1-3 [PDZ-14, 2-[2-(Dimethylamino)ethyl]-6-(acetylamino)-2,7-dihydro-3H-dibenzo[de,h]cynnoline-3,7-dione] | 1.27e+07 | 31.1 | 2.8 | – | –
2040 ± 70 | 776 ± 45 | 294 ± 53 | 111 ± 27 | 1240 ± 206 | 202 ± 35 | 393 ± 45 | – | – | – | – | – | – | CN(C)CCNc1ccc2c(=O)n(CCO)nc3c2c1C(=O)c1ccccc1-3 [Compound C-167, 2-(2-Hydroxyethyl)-6-(2-dimethylamino)ethylamino-2H-dibenzo[de,h]cynnoline-3,7-dione] | 6.2e+06 | 11.1 | 3.5 | – | –
230 ± 10 | 122 ± 27.6 | 21.8 ± 4.7 | 31 ± 6 | 330 ± 17 | 28.2 ± 7.4 | 48 ± 7 | – | – | – | – | – | – | CN(C)CCn1nc2c3ccccc3c3nn(CCN(C)C)c4ccc(c1=O)c2c34 [Compound C-163, Bis-2,6-[2-(dimethylamino)ethyl]-2,6-dihydro-5H-benzo[h]indazolo[5,4,3-def]cynnoline-5-one] | 5.57e+07 | 10.6 | 1.5 | – | –
1630 ± 120 | 2830 ± 234 | 1480 ± 127 | 1150 ± 244 | 4470 ± 428 | 927 ± 92 | 1010 ± 51 | – | – | – | – | – | – | CN(C)CCCNc1ccc2c(=O)[nH]nc3c2c1C(=O)c1ccccc1-3 [Compound C-131, 6-[(3-Dimethylamino)propyl]amino-3H-dibenzo[de,h]cynnoline-3,7-dione] | 7.7e+06 | 3.9 | 0.9 | – | –
– | – | – | – | – | – | – | – | – | – | 4 ± 0.4 | 3.9 ± 0.6 | 1.2 ± 0.3 | CC(=O)O[C@H]1C(=O)[C@@]2(C)[C@H]([C@H](OC(=O)c3ccccc3)[C@]3(O)C[C@H](OC(=O)[C@H](O)[C@@H](NC(=O)c4ccccc4)c4ccccc4)C(C)=C1C3(C)C)[C@]1(OC(C)=O)CO[C@@H]1C[C@@H]2O [Taxol, reference compound] | – | – | – | – | –
500 ± 60 | – | – | – | – | – | – | – | – | – | – | – | – | CC(=O)[C@]1(O)Cc2c(O)c3c(c(O)c2[C@@H](O[C@H]2C[C@H](N)[C@H](O)[C@H](C)O2)C1)C(=O)c1ccccc1C3=O [Idarubicin, reference compound] | 2.5e+07 | – | – | – | –
– | – | – | – | – | – | – | 8.2 ± 1 | 753 ± 29 | 210 ± 52 | – | – | – | CN(C)CCn1nc2c3c(cc(NCCN)cc3c1=O)C(=O)c1ccccc1-2 [Compound C-170, 2-[2-(Dimethylamino)ethyl]-5-(2-aminoetyloamino)-2,7-dihydro-3H-dibenzo[de,h]cynnoline-3,7-dione] | – | – | – | 91.9 | 25.6

SMILES | IC50 (CT-DNA) [nM] | IC50 [1] [nM] | IC50 [2] [nM] | IC50 [3, 5] [nM] | IC50 (HL60/DX; 72 h continuous exposure) [nM] | IC50 [4] [nM] | IC50 (HL60/VINC; 72 h continuous exposure) [nM] | IC50 ([3]; 96 h continuous exposure) [nM] | IC50 (HL60/DX; 96 h continuous exposure) [nM] | IC50 (HL60/VINC; [6]) [nM] | IC50 ([1]; Homo sapiens) [nM] | IC50 ([2]; Homo sapiens, DU-145) [nM] | IC50 ([4]; Homo sapiens, LNCaP) [nM] | Kapp relative constant of DNA-compound bonding (CT-DNA) [M⁻¹] | RI resistance index HL60/DX (HL60/DX; HL60/DX vs HL60, 72 h) | RI resistance index HL60/VINC (HL60/VINC) | RI resistance index HL60/DX (HL60/DX; 96 h) | RI resistance index HL60VINC (HL60/VINC)
O=C1c2ccccc2C(=O)c2c(NCCNCCO)ccc(NCCNCCO)c21 [Ametantrone, reference compound] | 49 ± 6 | – | – | – | – | – | – | – | – | – | – | – | – | 2.57e+08 | – | – | – | –

Source: US9096536B2, “Asymmetrically substituted anthrapyridazone derivatives as cytostatics” (BS-154 S.P. ZO.O., priority 2011, dated 2015)
